≈ marks a conversion by molar mass, not a printed value.
Experiments:
AECO001 (ATCC25922) = test: MIC broth microdilution, AECO001; assay type: cell-based, E. coli; settings: for MIC: Escherichia coli, ATCC25922, read-out: MIC AECO001
In short: (§1)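 CLSI-guided microdilution: bacteria passaged overnight at 35° C. on Mueller-Hinton agar, tested in cation-adjusted broth at a final 3×10^5–7×10^5 CFU/mL across 2-fold drug dilutions, read after 18-24 h at 35° C.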

[1] = test system: AECO063 (ATCC25922 bearing an acrAB mutation); test: microbe, parasite or virus in culture; assay type: cell-based, E. coli; settings: for MIC: Escherichia coli, ATCC25922, read-out: MIC AECO063
In short: as §1

APAE001 (ATCC27853) = test: MIC broth microdilution, APAE001; assay type: cell-based, P. aeruginosa; settings: for MIC: Pseudomonas aeruginosa, ATCC27853, read-out: MIC APAE001, APAE001 is ATCC27853
In short: as §1

[2] = test system: APAE006 (strain of P. aeruginosa in which all efflux pumps are inactivated); test: microbe, parasite or virus in culture; assay type: cell-based; settings: for MIC: Pseudomonas aeruginosa, read-out: MIC APAE006, P. aeruginosa, all efflux pumps inactivated
In short: (§2)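 For the efflux-deficient P. aeruginosa APAE006, one set of MICs includes polymyxin B nonapeptide at 8 micrograms per milliliter.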

[3] = test system: APAE006 in the presence of 8 micrograms per milliliter of polymyxin B nonapeptide; assay type: cell-based, P. aeruginosa; settings: in the presence of 8 micrograms per milliliter of polymyxin B nonapeptide
In short: as §2

[4] = test system: AABA1060 (clinical isolate of Acinetobacter baumannii); test: MIC broth microdilution, AABA1060; assay type: cell-based; settings: for MIC: Acinetobacter baumannii, read-out: MIC AABA1060
In short: as §1

[5] = test system: ASAU001 (laboratory strain of S. aureus, ATCC29213); test: MIC broth microdilution, ASAU001; assay type: cell-based; settings: for MIC: Staphylococcus aureus, ATCC29213, read-out: MIC ASAU001
In short: as §1

AECO001 HSA AGP = test: MIC broth microdilution, AECO001 HSA AGP; assay type: cell-based, E. coli; settings: for MIC: Escherichia coli
In short: as §1

Row | SMILES | MIC (AECO001 (ATCC25922)) | MIC [1] | MIC (APAE001 (ATCC27853)) | MIC [2] | MIC APAE006 + PMBN [3] | MIC [4] | MIC [5] | MIC (AECO001 HSA AGP) | MIC AECO001 (AECO001 (ATCC25922); AECO001 is ATCC25922) | MIC AECO063 ([1]; ATCC25922 bearing an acrAB mutation) | MIC APAE001 (APAE001 (ATCC27853); APAE001 is ATCC27853) | MIC APAE006 ([2]; P. aeruginosa, all efflux pumps inactivated) | MIC AABA1060 ([4]; clinical isolate of Acinetobacter baumannii) | MIC ASAU001 ([5]; S. aureus ATCC29213) | MIC AECO001 HSA AGP (AECO001 HSA AGP)
1 | C[C@@H](N)[C@H](NC(=O)c1ccc(/C=C/C#Cc2ccc(CO)cc2)cc1)C(=O)NO [Example 112-1] | < 2 µg/mL | < 2 µg/mL | < 2 µg/mL | < 2 µg/mL | A (MIC's of 2.0 μg/mL or less = A) | 2 to 16 µg/mL (≈ 5.08 to 40.7 µM) | > 64 µg/mL | 16 to 64 µg/mL (≈ 40.7 to 163 µM) |  |  |  |  |  |  | 
2 | C[C@@H](NC(=O)CNC1CC1)[C@H](NC(=O)c1ccc(C#CC#Cc2ccccc2)cc1)C(=O)NO [Example 85-2] | < 2 µg/mL | < 2 µg/mL | 2 to 16 µg/mL (≈ 4.36 to 34.9 µM) | < 2 µg/mL | A (MIC's of 2.0 μg/mL or less = A) | 16 to 64 µg/mL (≈ 34.9 to 140 µM) | 16 to 64 µg/mL (≈ 34.9 to 140 µM) | 2 to 16 µg/mL (≈ 4.36 to 34.9 µM) |  |  |  |  |  |  | 
3 | C[C@@H](O)[C@H](NC(=O)c1ccc(C#CC#Cc2ccc(CO)cc2)cc1)C(=O)NO [Example 82-14] | < 2 µg/mL | < 2 µg/mL | < 2 µg/mL | < 2 µg/mL | A (MIC's of 2.0 μg/mL or less = A) | < 2 µg/mL | 16 to 64 µg/mL (≈ 40.8 to 163 µM) | 16 to 64 µg/mL (≈ 40.8 to 163 µM) |  |  |  |  |  |  | 
4 | C[C@@H](N)[C@H](NC(=O)c1ccc(/C=C/C#Cc2ccc(CN3CCOCC3)cc2)cc1)C(=O)NO [Example 110-3] | < 2 µg/mL | < 2 µg/mL | < 2 µg/mL | < 2 µg/mL | A (MIC's of 2.0 μg/mL or less = A) | 2 to 16 µg/mL (≈ 4.32 to 34.6 µM) | > 64 µg/mL | 2 to 16 µg/mL (≈ 4.32 to 34.6 µM) |  |  |  |  |  |  | 
5 | C[C@H](NCC(=O)NC[C@H](NC(=O)c1ccc(C#Cc2ccccc2)cc1)C(=O)NO)c1ccccc1 [Example 132-4] | < 2 µg/mL | < 2 µg/mL | 2 to 16 µg/mL (≈ 4.13 to 33 µM) | < 2 µg/mL | A (MIC's of 2.0 μg/mL or less = A) | 2 to 16 µg/mL (≈ 4.13 to 33 µM) | 16 to 64 µg/mL (≈ 33 to 132 µM) | 2 to 16 µg/mL (≈ 4.13 to 33 µM) |  |  |  |  |  |  | 
6 | O=C(N[C@H](C(=O)NO)c1ccccc1)c1ccc(C#Cc2ccc(CN3CCOCC3)cc2)cc1 [Example 66-5, N—((S)-hydroxycarbamoyl-phenyl-methyl)-4-(4-morpholin-4-ylmethyl-phenylethynyl)-benzamide] | < 2 µg/mL | < 2 µg/mL | 2 to 16 µg/mL (≈ 4.26 to 34.1 µM) | < 2 µg/mL | A (MIC's of 2.0 μg/mL or less = A) | 2 to 16 µg/mL (≈ 4.26 to 34.1 µM) | > 64 µg/mL | 2 to 16 µg/mL (≈ 4.26 to 34.1 µM) |  |  |  |  |  |  | 
7 | C[C@@H](N)[C@H](NC(=O)c1ccc(C#Cc2ccc(CN(C)Cc3cccnc3)cc2)cc1)C(=O)NO [Example 115-5] | < 2 µg/mL | < 2 µg/mL | 2 to 16 µg/mL (≈ 4.24 to 33.9 µM) | < 2 µg/mL | A (MIC's of 2.0 μg/mL or less = A) | 2 to 16 µg/mL (≈ 4.24 to 33.9 µM) | > 64 µg/mL | 2 to 16 µg/mL (≈ 4.24 to 33.9 µM) |  |  |  |  |  |  | 
8 | C[C@H](O)[C@H](NC(=O)c1ccc(/C=C/C#Cc2ccc(CNC3CC3)cc2)cc1)C(=O)NO [Example 113-4] | < 2 µg/mL | < 2 µg/mL | 2 to 16 µg/mL (≈ 4.61 to 36.9 µM) | < 2 µg/mL | A (MIC's of 2.0 μg/mL or less = A) | 2 to 16 µg/mL (≈ 4.61 to 36.9 µM) | > 64 µg/mL | 2 to 16 µg/mL (≈ 4.61 to 36.9 µM) |  |  |  |  |  |  | 
9 | CC(=O)NC[C@H](NC(=O)c1ccc(C#C/C=C/c2ccc(CN3CCOCC3)cc2)cc1)C(=O)NO [Example 98-3, N—((S)-2-acetylamino-1-hydroxycarbamoyl-ethyl)-4-[(E)-4-(4-morpholin-4-ylmethyl-phenyl)-but-3-en-1-ynyl]-benzamide] | < 2 µg/mL | < 2 µg/mL | 2 to 16 µg/mL (≈ 4.08 to 32.6 µM) | < 2 µg/mL | A (MIC's of 2.0 μg/mL or less = A) | 16 to 64 µg/mL (≈ 32.6 to 130 µM) | > 64 µg/mL | < 2 µg/mL |  |  |  |  |  |  | 
10 | C[C@@H](O)[C@H](NC(=O)c1ccc(C#Cc2cccc(OC(F)(F)F)c2)cc1)C(=O)NO [Example 133-11] | < 2 µg/mL | < 2 µg/mL | 16 to 64 µg/mL (≈ 37.9 to 152 µM) | 2 to 16 µg/mL (≈ 4.74 to 37.9 µM) | A (MIC's of 2.0 μg/mL or less = A) | 16 to 64 µg/mL (≈ 37.9 to 152 µM) | 16 to 64 µg/mL (≈ 37.9 to 152 µM) | 16 to 64 µg/mL (≈ 37.9 to 152 µM) |  |  |  |  |  |  | 
11 | CC(C)(O)[C@H](NC(=O)c1ccc(C#C/C=C/c2ccc(CO)cc2)cc1)C(=O)NO [Example 101-5] | < 2 µg/mL | < 2 µg/mL | < 2 µg/mL | < 2 µg/mL | A (MIC's of 2.0 μg/mL or less = A) | < 2 µg/mL | 16 to 64 µg/mL (≈ 39.2 to 157 µM) | 2 to 16 µg/mL (≈ 4.9 to 39.2 µM) |  |  |  |  |  |  | 
12 | O=C(NC(C(=O)NO)C1CCOCC1)c1ccc(C#Cc2ccc(CN3CCOCC3)cc2)cc1 (stereo not shown) [Example 67-5, N-[hydroxycarbamoyl-(tetrahydro-pyran-4-yl)-methyl]-4-(4-morpholin-4-ylmethyl-phenylethynyl)-benzamide] | < 2 µg/mL | < 2 µg/mL | 2 to 16 µg/mL (≈ 4.19 to 33.5 µM) | < 2 µg/mL | A (MIC's of 2.0 μg/mL or less = A) | 16 to 64 µg/mL (≈ 33.5 to 134 µM) | > 64 µg/mL | 2 to 16 µg/mL (≈ 4.19 to 33.5 µM) |  |  |  |  |  |  | 
13 | NC[C@H](NC(=O)c1ccc(C#C/C=C/c2ccc(CO)cc2)cc1)C(=O)NO [Example 101-2] | < 2 µg/mL | < 2 µg/mL | 2 to 16 µg/mL (≈ 5.27 to 42.2 µM) | < 2 µg/mL | A (MIC's of 2.0 μg/mL or less = A) | 16 to 64 µg/mL (≈ 42.2 to 169 µM) | 16 to 64 µg/mL (≈ 42.2 to 169 µM) | 16 to 64 µg/mL (≈ 42.2 to 169 µM) |  |  |  |  |  |  | 
14 | C[C@H](NCC(=O)NC[C@H](NC(=O)c1ccc(C#C/C=C/c2ccccc2)cc1)C(=O)NO)c1ccccc1 [Example 105-2, N—{(S)-1-Hydroxycarbamoyl-2-[2-((S)-1-phenyl-ethylamino)-acetylamino]-ethyl}-4-((E)-4-phenyl-but-3-en-1-ynyl)-benzamide] | < 2 µg/mL | < 2 µg/mL | 2 to 16 µg/mL (≈ 3.92 to 31.3 µM) | < 2 µg/mL | A (MIC's of 2.0 μg/mL or less = A) | 16 to 64 µg/mL (≈ 31.3 to 125 µM) | 16 to 64 µg/mL (≈ 31.3 to 125 µM) | < 2 µg/mL |  |  |  |  |  |  | 
15 | O=CN(O)CC(CO)NC(=O)c1ccc(C#Cc2ccc(CN3CCOCC3)cc2)cc1 (stereo not shown) [Example 128-1, N-[2-(Formyl-hydroxy-amino)-1-hydroxymethyl-ethyl]-4-(4-morpholin-4-yl-methyl-phenylethynyl)-benzamide] |  |  |  |  | C (MIC's of greater than 16.0 μg/mL to 64.0 μg/mL = C) |  |  |  | C (MIC's of greater than 16.0 μg/mL to 64.0 μg/mL = C) | C (MIC's of greater than 16.0 μg/mL to 64.0 μg/mL = C) | C (MIC's of greater than 16.0 μg/mL to 64.0 μg/mL = C) | C (MIC's of greater than 16.0 μg/mL to 64.0 μg/mL = C) | C (MIC's of greater than 16.0 μg/mL to 64.0 μg/mL = C) | C (MIC's of greater than 16.0 μg/mL to 64.0 μg/mL = C) | C (MIC's of greater than 16.0 μg/mL to 64.0 μg/mL = C)
16 | C[C@@H](N)[C@H](NC(=O)c1ccc(C#CC#Cc2ccncc2)cc1)C(=O)NO [Example 88-2] | < 2 µg/mL | < 2 µg/mL | < 2 µg/mL | < 2 µg/mL | A (MIC's of 2.0 μg/mL or less = A) | 2 to 16 µg/mL (≈ 5.52 to 44.2 µM) | 2 to 16 µg/mL (≈ 5.52 to 44.2 µM) | 2 to 16 µg/mL (≈ 5.52 to 44.2 µM) |  |  |  |  |  |  | 
17 | C[C@@H](N)[C@H](NC(=O)c1ccc(C#Cc2ccc(CN3CCC(F)(F)CC3)cc2)cc1)C(=O)NO [Example 115-3] | < 2 µg/mL | < 2 µg/mL | 2 to 16 µg/mL (≈ 4.25 to 34 µM) | < 2 µg/mL | A (MIC's of 2.0 μg/mL or less = A) | 2 to 16 µg/mL (≈ 4.25 to 34 µM) | > 64 µg/mL | < 2 µg/mL |  |  |  |  |  |  | 

Source: US9617256B2 (priority 2007, dated 2017)
